Here are results for 2 compounds from PMC4104029, “Mechanism of Action of Compound-13: An α1-Selective Small Molecule Activator of AMPK” (Chemistry & Biology, 2014).

SMILES strings stand for the structures. Where two headings read alike, the source gives them in different places.

The subject of assay [1] is AMP deaminase-1. Description: AMPD1 assay. In kind it is biochemical, chicken. The conditions noted are these: concentrations up to 100 μM; data not shown. An excerpt:
Supplemental Experimental Procedures:
Materials. Compounds 2 and 13 were synthesised by PeakDale Molecular and Natalia Shpiro (MRC-PPU, Dundee), respectively, as described previously (Gomez-Galeno, et al., 2010).
A769662 was from Selleck Chemicals and AICAR from Toronto Research Chemicals. Mouse FBP1, PYGM and PFK1 (muscle isoform) were cloned, expressed and purified from E.coli using standard techniques. AMPD was purified from chicken muscle (Smiley, et al., 1967).
PP2Cα expressed in E.coli was from the Division of Signal Transduction Therapy (DSTT, Dundee). Peptides were synthesised by GL Biochem (Shanghai). [γ-32P]-ATP, [1-14C]-acetic acid and [9,10-3H(N)]-palmitic acid were from PerkinElmer. pS79 ACC1 (#3661), ACC1 […]
antibodies were purchased from Cell Signaling Technology. Anti-AMPKα1 (07-350) and AMPKα2 (07-363) used for immunoblotting were from Merck-Millipore. Anti-AMPKγ1 was from Origene (clone Y308). Anti-AMPKγ2 was from Epitomics (S1562). Anti-tubulin (B-5-1-2), anti-FLAG (F7425) and anti-FLAG M2 agarose were from Sigma. Anti-HA (HA.11) was from Covance Research Products. AMPKα1/2 antibodies used for immunoprecipitation kinase assays were described previously (Sakamoto, et al., 2006). […]
AMPK preparations. […] Isolated human AMPKα subunits were expressed as N-terminal GST-fusions in E.coli and activated as described for heterotrimeric complexes. […]

Assay [2] concerns primary mouse hepatocytes (WT). The experiment in a line: Lipid synthesis, [1-14C]acetate incorporation. Format: cell-based. The conditions noted are these: for IC50: Mus musculus, Hepatocyte. The procedure: Figure 5 C13 Inhibits Lipid Synthesis and Fatty Acid Esterification in Mouse Hepatocytes in an AMPK-Dependent Manner (A) Mouse hepatocytes were treated with the indicated concentrations of C13 and labeled with [1-^14C]acetate for 3 hr. A769662 (100 μM) and AICAR (0.5 mM) were included as positive controls. Rates of fatty acid and sterol synthesis were estimated by incorporation into saponifiable and nonsaponifiable lipids. Results are expressed as the mean acetate incorporated in micromoles per gram-hour ± SD and are representative of two independent experiments. (B) Mouse hepatocytes were treated with the indicated compounds for 30 min and labeled with media containing 0.5 mM palmitic acid (1 mCi⋅mmol^−1 [9,10-^3H]palmitic acid) for an additional 60 min. Incorporation into triglyceride was determined as described in Experimental Procedures and results are expressed as palmitate incorporated in micromoles per gram-hour ± SD and are representative of three independent experiments. (C and D) Mouse hepatocytes from WT or AMPK-null (AMPKα1^−/− -α2^−/−) mice were incubated with the indicated concentrations of C13 and labeled with [1-^14C]acetate for 3 hr. Rates of fatty acid and sterol synthesis were estimated from incorporation into saponifiable (C) and nonsaponifiable (D) lipids. Results are expressed as percentage WT vehicle and represent the mean ± SD for three independent experiments. (E) Hepatocytes were treated with the indicated concentrations of C13 for 3 hr, and lysates were blotted with the indicated antibodies.
Lipid synthesis was determined by labeling adherent cultures of primary hepatocytes with [1-^14C]acetate. After overnight culture, hepatocytes (5 × 10^5) were washed with warm PBS and allowed to rest for 3 hr in fresh M199. Cells were treated with vehicle (0.1% DMSO) or the indicated compounds and labeled with 1 mCi⋅mmol^−1 [1-^14C]acetate for 3 hr. Cells were washed with ice-cold PBS, gently scraped into 0.5 ml PBS and saponified in methanolic KOH at 80°C for 1 hr. Nonsaponifiable and saponifiable lipids were extracted with petroleum ether before and after acidification with HCl. Lipid fractions were washed with 5% HAc, dried using N2, and dissolved in scintillant for the determination of [^14C] incorporation. Lipogenesis in hepatocytes from AMPKβ1/β2-KO mice was determined in media containing [^3H]acetate (0.2 mCi⋅mmol^−1). After 4 hr labeling, total lipids were extracted using the method of [Bligh and Dyer (1959)], and incorporated [^3H] was determined by scintillation counting. The results are expressed as micromoles acetate incorporated per gram-hour.

In general, IC50 refers to the concentration that inhibits the measured activity by half.

Regarding `O=P(O)(O)c1ccc(-c2cc(O)on2)o1` [Compound C2, 5-(5-hydroxyl-isoxazol-3-yl)-furan-2-phosphonic acid], the “effect on enzyme activity” value in assay [1] is recorded as “None of these enzymes were affected”.
With `CC(C)C(=O)OCOP(=O)(OCOC(=O)C(C)C)c1ccc(C2=NOC(=O)C2)o1` [Compound C13], in assay [2] (1 μM, WT cells), the “reduction of lipid synthesis” value was “about 40%”. In addition, the IC50 in assay [2] ([14C]acetate, 3 hr, read-out: IC50, inhibition of lipid synthesis, nonsaponifiable lipids) was 1500 nM; in assay [2] ([14C]acetate, 3 hr, read-out: IC50, inhibition of lipid synthesis, saponifiable lipids), 1700 nM. Besides, the “concentration of maximal effect on lipid synthesis” value in assay [2] ([14C]acetate, 3 hr) is 30 µM. Besides, the “potency relative to A769662” value in assay [2] (similar inhibition with 3 μM C13 and 100 μM A769662) is reported as “≈ 30 fold”.
